Source: BindingDB's records for patent US10508104 (Bristol Myers Squibb, 2019)

Biological target: T1, Apelin receptor (Homo sapiens, UniProt P35414)
T1 sequence (P35414 whole entry): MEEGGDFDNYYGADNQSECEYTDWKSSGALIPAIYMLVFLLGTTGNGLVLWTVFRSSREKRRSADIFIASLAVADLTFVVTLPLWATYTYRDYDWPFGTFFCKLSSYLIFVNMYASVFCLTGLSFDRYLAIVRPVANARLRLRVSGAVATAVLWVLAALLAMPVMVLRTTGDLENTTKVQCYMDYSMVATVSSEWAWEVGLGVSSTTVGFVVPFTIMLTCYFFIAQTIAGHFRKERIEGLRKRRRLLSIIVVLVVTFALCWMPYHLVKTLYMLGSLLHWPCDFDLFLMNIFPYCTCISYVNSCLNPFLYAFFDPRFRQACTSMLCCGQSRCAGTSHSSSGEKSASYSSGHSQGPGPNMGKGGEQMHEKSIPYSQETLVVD
Experiment: Intracellular cAMP Accumulation Assay
Procedure: HEK293 cells stably expressing human APJ receptor were used to assess the activity of compounds. Cultured cells were detached and resuspended in the cAMP Homogeneous Time-Resolved Fluorescence (HTRF) assay buffer (Cisbio cat; #62AM4PEJ). […] Serial dilutions of a compound together with assay buffer containing […] and 2 μM forskolin were added to each well containing 5,000 cells and incubated for 30 minutes at room temperature. Subsequently, cAMP D2 reagent was added in the lysis buffer followed by the EuK antibody (Cisbio; cat #62AM4PEJ) and incubated for 60 min. The fluorescence emission ratio was measured using fluorometer. The intracellular cAMP concentrations (compound-stimulated inhibition of forskolin-mediated cAMP production) were calculated by extrapolation from a standard curve using known cAMP concentrations. The EC50 values were obtained by fitting the data to a sigmoidal concentration-response curve with variable slope.

Q: For CCCCC1NC(=O)C(S(=O)(=O)c2ccc(-c3ccnc(F)c3C)cc2)=C(O)N1[C@@H](CC)c1cccc(OC)c1 (stereo partly specified) [US10508104, Example 169], which EC50 is on record?
A: in the range around 5 nM
